In one assay the test system is C. krusei ATCC 32672. As to the kind of experiment: Checkerboard MIC assay, FICI. It counts as cell-based, Candida krusei. The source says: (§1) The following assay was used to determine the minimum inhibitory concentration (MIC) and fractional inhibitory concentration index (FICI) for combinations of an antifungal agent and a glycopeptide antibacterial agent. This assay and methods for calculating FICI are well known in the art. See, for example, Eliopoulos, E. G. and R. Moellering, Jr. “Antimicrobial Combinations” in Antibiotics in Laboratory Medicine, edited by V. Lorian, 4th Ed., Williams & Wilkins, Baltimore, MD, pp. 330-396 (1996); […] et al., Antimicrobial Agents and Chemotherapy 47(4):1416-1418 (2003); or […] et al., Antimicrobial Agents and Chemotherapy 46(10):3323-3326 (2002). Procedures, protocols, supplies and equipment used in this assay follow the recommendations approved and published by the National Committee for Clinical Laboratory Standards (NCCLS), Wayne, Pa. as described in NCCLS 2003, “Reference Method for Broth Dilution Antimicrobial Susceptibility Tests for Bacteria that Grow Aerobically; Approved Standard” (NCCLS document M7-A6); NCCLS 2002, “Reference Method for Broth Dilution Antifungal Susceptibility Tests of Filamentous Fungi that Grow Aerobically; Approved Standard” (NCCLS document M38-A); and NCCLS 2002 “Reference Method for Broth Dilution Antifungal Susceptibility Tests of Yeast; Approved Standards-2nd Edition” (NCCLS document M27-A2). Using a checkerboard method, a 2-fold dilution 100× final concentration master plate was prepared using a 96-well U-shape microtiter plate and an appropriate solvent. In the “checkerboard” method, a microtiter plate is divided into “columns” in which each well in the column contains the same amount of an antifungal agent (Compound A) being diluted along the x-axis, and “rows” in which each well in the row contains the same amount of a glycopeptide antibacterial agent (Compound B) being diluted on the y-axis. Also included is a row (or column) for Compound A or B alone. The dilutions used in the checkerboard are exponential (by powers of two). The result is that each well in the microtiter plate contains a unique concentration of the two compounds being tested. […] After mixing, 100 μL of 2× drug combinations were distributed into 96-well microtiter plates. […] Compound A was not added to Column 12, so Column 12 contained only Compound B. Compound B was diluted from row A starting at 6,400 μg/mL down to row G (100 μg/mL). Wells in Row A contained a final concentration of 64 μg/mL of Compound B; Row B contained a final concentration of 32 μg/mL of Compound B; Row C contained a final concentration of 16 μg/mL of Compound B; etc. Compound B was not added to Row H, so Row H only contained Compound A. […] The MIC of the glycopeptide antibacterial agent determined from this experiment was used in FIC calculations. […] RPMI-1640 without sodium bicarbonate media (GIBCO-BRL, Carlsbad, Calif.), an enriched media formulated for mammalian cells, was used according to the NCCLS guidelines for yeast and filamentous fungi susceptibility testing. The medium was buffered with 0.165 M 3-[N-Morpholino]propanesulfonic acid (MOPS) supplemented with 20 g/L glucose and pH adjusted to 7.0 with hydrogen chloride. Sabouraud Dextrose Agar ([…] plates, and Potato Dextrose Agar (PDA) plates were purchased from Hardy Diagnostic (Santa Maria, Calif.). Yeast cultures were started from -80° C. frozen stock streaked on […] incubated at 35° C. under aerobic conditions for 24 h. The […] in the refrigerator for up to 2 weeks and used regularly as a starting culture. About 24 to 48 h before each assay was run, yeasts were streaked on SDA plates for isolated colonies. To prepare the inoculum, from one to four colonies were resuspended in 5 mL of saline, and vortexed for 15 sec. […] For most yeast and mold cultures, the optical density (OD) of the suspension was adjusted to 0.11 in saline to provide 0.4×10^6 CFU/mL. However, for Fusarium moniliforme and Pseudallescheria boydii the OD of the suspension was adjusted to OD=0.17 to provide 0.4×10^6 CFU/mL. […]

Another assay deals with C. glabrata ATCC 200918. Description: Checkerboard MIC assay, FICI. The class given is cell-based, Candida glabrata. Conditions: combination with Compound 1. An excerpt: The following assay was used to determine the minimum inhibitory concentration (MIC) and fractional inhibitory concentration index (FICI) for combinations of an antifungal agent and a glycopeptide antibacterial agent. This assay and methods for calculating FICI are well known in the art. See, for example, Eliopoulos, E. G. and R. Moellering, Jr. “Antimicrobial Combinations” in Antibiotics in Laboratory Medicine, edited by V. Lorian, 4th Ed., Williams & Wilkins, Baltimore, MD, pp. 330-396 (1996); […] et al., Antimicrobial Agents and Chemotherapy 47(4):1416-1418 (2003); or […] et al., Antimicrobial Agents and Chemotherapy 46(10):3323-3326 (2002). Procedures, protocols, supplies and equipment used in this assay follow the recommendations approved and published by the National Committee for Clinical Laboratory Standards (NCCLS), Wayne, Pa. as described in NCCLS 2003, “Reference Method for Broth Dilution Antimicrobial Susceptibility Tests for Bacteria that Grow Aerobically; Approved Standard” (NCCLS document M7-A6); NCCLS 2002, “Reference Method for Broth Dilution Antifungal Susceptibility Tests of Filamentous Fungi that Grow Aerobically; Approved Standard” (NCCLS document M38-A); and NCCLS 2002 “Reference Method for Broth Dilution Antifungal Susceptibility Tests of Yeast; Approved Standards-2nd Edition” (NCCLS document M27-A2). Using a checkerboard method, a 2-fold dilution 100× final concentration master plate was prepared using a 96-well U-shape microtiter plate and an appropriate solvent. In the “checkerboard” method, a microtiter plate is divided into “columns” in which each well in the column contains the same amount of an antifungal agent (Compound A) being diluted along the x-axis, and “rows” in which each well in the row contains the same amount of a glycopeptide antibacterial agent (Compound B) being diluted on the y-axis. Also included is a row (or column) for Compound A or B alone. The dilutions used in the checkerboard are exponential (by powers of two). The result is that each well in the microtiter plate contains a unique concentration of the two compounds being tested. […] After mixing, 100 μL of 2× drug combinations were distributed into 96-well microtiter plates. […] Compound A was not added to Column 12, so Column 12 contained only Compound B. Compound B was diluted from row A starting at 6,400 μg/mL down to row G (100 μg/mL). Wells in Row A contained a final concentration of 64 μg/mL of Compound B; Row B contained a final concentration of 32 μg/mL of Compound B; Row C contained a final concentration of 16 μg/mL of Compound B; etc. Compound B was not added to Row H, so Row H only contained Compound A. […] The MIC of the glycopeptide antibacterial agent determined from this experiment was used in FIC calculations. […]

Assay [1] concerns C. parapsilosis ATCC 22019. As to the kind of experiment: Checkerboard MIC assay, FICI. The class given is cell-based, Candida parapsilosis.
Excerpt: as §1

The next assay has as its system C. albicans ATCC 24433. Description: Checkerboard MIC assay, FICI. The class given is cell-based, Candida albicans.
Excerpt: as §1

Another assay relates to C. tropicalis ATCC 750. As to the kind of experiment: Checkerboard MIC assay, FICI. It counts as cell-based, Candida tropicalis.
Excerpt: as §1

In the next assay the test system is various strains of fungi. As to the kind of experiment: Assay for determining MIC and FICI, summary over strains. The class given is cell-based. The conditions noted are these: combination with amphotericin B. The source says: The following assay was used to determine the minimum inhibitory concentration (MIC) and fractional inhibitory concentration index (FICI) for combinations of an antifungal agent and a glycopeptide antibacterial agent. This assay and methods for calculating FICI are well known in the art. See, for example, Eliopoulos, E. G. and R. Moellering, Jr. “Antimicrobial Combinations” in Antibiotics in Laboratory Medicine, edited by V. Lorian, 4th Ed., Williams & Wilkins, Baltimore, MD, pp. 330-396 (1996); Shalit et al., Antimicrobial Agents and Chemotherapy 47(4):1416-1418 (2003); or Afeltra et al., Antimicrobial Agents and Chemotherapy 46(10):3323-3326 (2002).
Procedures, protocols, supplies and equipment used in this assay follow the recommendations approved and published by the National Committee for Clinical Laboratory Standards (NCCLS), Wayne, Pa. as described in NCCLS 2003, “Reference Method for Broth Dilution Antimicrobial Susceptibility Tests for Bacteria that Grow Aerobically; Approved Standard” (NCCLS document M7-A6); NCCLS 2002, “Reference Method for Broth Dilution Antifungal Susceptibility Tests of Filamentous Fungi that Grow Aerobically; Approved Standard” (NCCLS document M38-A); and NCCLS 2002 “Reference Method for Broth Dilution Antifungal Susceptibility Tests of Yeast; Approved Standards-2nd Edition” (NCCLS document M27-A2). […]

[2] abbreviates: combination with Compound 1, C. krusei ATCC 32672.
Setting [3] is: combination with Compound 1, C. parapsilosis ATCC 22019.
[4] abbreviates: combination with Compound 1, C. albicans ATCC 24433.
Where [5] appears, read: combination with Compound 1, C. tropicalis ATCC 750.
Setting [6] is: combination with Amphotericin B, C. krusei 32672.
Where [7] appears, read: combination with Amphotericin B, C. parapsilosis 22019.
The mark [8] stands for this setting: combination with Amphotericin B, C. albicans 24433.
Where [9] appears, read: combination with Amphotericin B, C. tropicalis 750.

Consider six compounds from patent US7521418B2, “Use of a polyene macrolide antifungal agent in combination with a glycopeptide antibacterial agent” (Theravance, Inc., priority 2003, dated 2009).

Take `C[C@@H](c1ncncc1F)[C@](O)(Cn1cncn1)c1ccc(F)cc1F` [Voriconazole, voriconazole]: the FICI in the assay with C. krusei ATCC 32672 (setting [2]) and in the assay with C. glabrata ATCC 200918 was 1.13 each time.
With `Clc1ccc(COC(Cn2ccnc2)c2ccc(Cl)cc2Cl)c(Cl)c1` (centres unmarked) [Miconazole, miconazole], the FICI (in assay [1] (setting [3]); in the assay with C. albicans ATCC 24433 (setting [4]); with C. tropicalis ATCC 750 (setting [5])) was 2.00 in each case.
On to `OC(Cn1cncn1)(Cn1cncn1)c1ccc(F)cc1F` [Fluconazole], for which the FICI (in the assay on C. krusei ATCC 32672 (setting [2]); with C. glabrata ATCC 200918; in assay [1] (setting [3]); in the assay on C. albicans ATCC 24433 (setting [4]); with C. tropicalis ATCC 750 (setting [5])) was 2.00 each time.
For `CN[C@H](CC(C)C)C(=O)N[C@H]1C(=O)N[C@@H](CC(N)=O)C(=O)N[C@H]2C(=O)N[C@H]3C(=O)N[C@H](C(=O)N[C@H](C(=O)O)c4cc(O)cc(O)c4-c4cc3ccc4O)[C@H](O)c3ccc(c(Cl)c3)Oc3cc2cc(c3O[C@@H]2O[C@H](CO)[C@@H](O)[C@H](O)[C@H]2O[C@H]2C[C@](C)(N)[C@H](O)[C@H](C)O2)Oc2ccc(cc2Cl)[C@H]1O` [Vancomycin], the FICI (in the assay with C. krusei ATCC 32672 (setting [6]); in assay [1] (setting [7]); in the assay on C. albicans ATCC 24433 (setting [8]); in the assay with C. tropicalis ATCC 750 (setting [9])) was 2.00 in each case. Moreover, the “effect of the combination” value with various strains of fungi was “not synergistic or additive”.
In the case of `CCCCCCCCCCNCCN[C@@]1(C)C[C@H](O[C@H]2[C@H](Oc3c4cc5cc3Oc3ccc(cc3Cl)[C@@H](O)[C@@H](NC(=O)[C@@H](CC(C)C)NC)C(=O)N[C@@H](CC(N)=O)C(=O)N[C@H]5C(=O)N[C@H]3C(=O)N[C@H](C(=O)N[C@H](C(=O)O)c5cc(O)c(CNCP(=O)(O)O)c(O)c5-c5cc3ccc5O)[C@H](O)c3ccc(c(Cl)c3)O4)O[C@H](CO)[C@@H](O)[C@@H]2O)O[C@@H](C)[C@H]1O` [Compound 1, telavancin], the FICI (in the assay on C. krusei ATCC 32672 (setting [6]); in assay [1] (setting [7]); with C. albicans ATCC 24433 (setting [8]); with C. tropicalis ATCC 750 (setting [9])) was 0.31 throughout.
For Teicoplanin, the FICI in the assay on C. krusei ATCC 32672 (setting [6]) came to 0.38; in assay [1] (setting [7]) it was 0.38; with C. albicans ATCC 24433 (setting [8]), 0.53; in the assay with C. tropicalis ATCC 750 (setting [9]) it was 0.38.
